Experimental data taken from ChEMBL document CHEMBL1201862, “PubChem BioAssay data set” (2004).
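All cell lines were grown in 96-well plates and treated with compound for 48 hours. GI50: concentration for 50% inhibition of growth.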 The source made the active and inactive calls. Rule as the data show it: active = GI50 up to about 1.1 µM and inactive = higher.

Tests used:
Assay in all cases: DTP human tumour cell line panel, 48 h
SK-MEL-2 = test system: SK-MEL-2
UACC-257 = test system: UACC-257
HCT-15 = test system: HCT-15
SF-295 = test system: SF-295
SF-268 = test system: SF-268
SR = test system: SR
SN12C = test system: SN12C
OVCAR-3 = test system: OVCAR-3
LOX IMVI = test system: LOX IMVI
NCI-H226 = test system: NCI-H226
SK-MEL-28 = test system: SK-MEL-28
IGROV-1 = test system: IGROV-1
ACHN = test system: ACHN
RXF 393 = test system: RXF 393
A549 = test system: A549
HL-60 = test system: HL-60
KM12 = test system: KM12
NCI-H460 = test system: NCI-H460
NCI-H23 = test system: NCI-H23
SNB-75 = test system: SNB-75

Row | Structure (SMILES) | GI50 (SK-MEL-2) | GI50 (UACC-257) | GI50 (HCT-15) [µM] | GI50 (SF-295) | GI50 (SF-268) | GI50 (SR) | GI50 (SN12C) | GI50 (OVCAR-3) | GI50 (LOX IMVI) | GI50 (NCI-H226) | GI50 (SK-MEL-28) | GI50 (IGROV-1) | GI50 (ACHN) | GI50 (RXF 393) | GI50 (A549) | GI50 (HL-60) | GI50 (KM12) | GI50 (NCI-H460) | GI50 (NCI-H23) | GI50 (SNB-75)
1 | NC(=O)c1cc(N(CCO)CCO)c([N+](=O)[O-])cc1[N+](=O)[O-] | > 100 µM (inactive) | > 100 µM (inactive) | > 100 | > 100 µM (inactive) | > 100 µM (inactive) | > 100 µM (inactive) | > 100 µM (inactive) | > 100 µM (inactive) | > 100 µM (inactive) | > 100 µM (inactive) | > 100 µM (inactive) | > 100 µM (inactive) | > 100 µM (inactive) | > 100 µM (inactive) | > 100 µM (inactive) | > 100 µM (inactive) | > 100 µM (inactive) | > 100 µM (inactive) | > 100 µM (inactive) | –
2 | N#CCCN(CCC#N)c1ccc(/C=C2\N=C(c3cc([N+](=O)[O-])ccc3Cl)OC2=O)cc1 | 20 µM (inactive) | 20 µM (inactive) | 53.2 | 44.5 µM (inactive) | 45.1 µM (inactive) | 33.3 µM (inactive) | 19.9 µM (inactive) | 27.8 µM (inactive) | 23.7 µM (inactive) | 22.4 µM (inactive) | 52.6 µM (inactive) | > 100 µM (inactive) | > 100 µM (inactive) | – | > 100 µM (inactive) | 38.1 µM (inactive) | 14.7 µM (inactive) | 67.5 µM (inactive) | – | 23.9 µM (inactive)
3 | C=C1C(=O)C=C[C@]2(C)CC[C@H]3C(=C)C(=O)O[C@@H]3[C@@H]12 | 2.55 µM (inactive) | 2.67 µM (inactive) | 0.785 | 15.1 µM (inactive) | 3.15 µM (inactive) | 1.79 µM (inactive) | 2.96 µM (inactive) | 1.85 µM (inactive) | 1.8 µM (inactive) | – | 1.91 µM (inactive) | 1.29 µM (inactive) | 0.9 µM (active) | 1.45 µM (inactive) | 11.6 µM (inactive) | 1.9 µM (inactive) | 1.61 µM (inactive) | 12.1 µM (inactive) | 2.63 µM (inactive) | –
4 | CC[n+]1[b-](C(C)(C)C)n(/N=C(\C)C(C)(C)C)[b-](C(C)(C)C)[n+]1CC | > 100 µM (inactive) | > 100 µM (inactive) | > 100 | > 100 µM (inactive) | > 100 µM (inactive) | 23.6 µM (inactive) | > 100 µM (inactive) | > 100 µM (inactive) | > 100 µM (inactive) | 72.9 µM (inactive) | > 100 µM (inactive) | > 100 µM (inactive) | > 100 µM (inactive) | > 100 µM (inactive) | > 100 µM (inactive) | – | > 100 µM (inactive) | > 100 µM (inactive) | > 100 µM (inactive) | > 100 µM (inactive)
5 | COC(C)(C)C1=CCC(C)CC1 (stereo unspecified) | – | > 100 µM (inactive) | > 100 | > 100 µM (inactive) | > 100 µM (inactive) | 24 µM (inactive) | > 100 µM (inactive) | > 100 µM (inactive) | – | – | > 100 µM (inactive) | > 100 µM (inactive) | > 100 µM (inactive) | > 100 µM (inactive) | > 100 µM (inactive) | > 10 µM (inactive) | > 100 µM (inactive) | > 100 µM (inactive) | > 100 µM (inactive) | 66.1 µM (inactive)
6 | C=C(C(=O)OC)[C@H]1CC/C(C)=C/CC[C@@](C)(O)C=CC[C@@]2(C)O[C@@H]2C1 | 97.1 µM (inactive) | 27.5 µM (inactive) | 24.2 | > 100 µM (inactive) | 19.6 µM (inactive) | 9.93 µM (inactive) | 47.4 µM (inactive) | 17.7 µM (inactive) | – | > 100 µM (inactive) | 10.9 µM (inactive) | 46.6 µM (inactive) | 36.3 µM (inactive) | 32.4 µM (inactive) | 81.3 µM (inactive) | – | 37.6 µM (inactive) | > 100 µM (inactive) | 24.1 µM (inactive) | > 100 µM (inactive)
7 | O=C1CN(c2ccc(Cl)cc2)C(=O)CN1NCNN1CC(=O)N(c2ccc(Cl)cc2)CC1=O | – | > 100 µM (inactive) | > 100 | > 100 µM (inactive) | > 100 µM (inactive) | > 100 µM (inactive) | > 100 µM (inactive) | > 100 µM (inactive) | – | – | > 100 µM (inactive) | > 100 µM (inactive) | > 100 µM (inactive) | > 100 µM (inactive) | > 100 µM (inactive) | > 100 µM (inactive) | > 100 µM (inactive) | > 100 µM (inactive) | > 100 µM (inactive) | > 100 µM (inactive)
8 | O=C1N[C@@H](COc2ccc(/C=N/c3ccc(CCc4ccc(/N=C/c5ccc(OC[C@@H]6COC(=O)N6)cc5)cc4)cc3)cc2)CO1 | > 100 µM (inactive) | > 100 µM (inactive) | > 100 | > 100 µM (inactive) | > 100 µM (inactive) | > 100 µM (inactive) | > 100 µM (inactive) | > 100 µM (inactive) | > 100 µM (inactive) | > 100 µM (inactive) | > 100 µM (inactive) | > 100 µM (inactive) | > 100 µM (inactive) | > 100 µM (inactive) | > 100 µM (inactive) | > 100 µM (inactive) | > 100 µM (inactive) | – | – | –
9 | COC(=O)C12OC(C)(C(CC(=O)OC(C)(C)C)C1=O)C1C(=O)N(c3ccccc3)C(=O)C12 (stereo unspecified) | > 100 µM (inactive) | > 100 µM (inactive) | > 100 | > 100 µM (inactive) | > 100 µM (inactive) | > 100 µM (inactive) | > 100 µM (inactive) | > 100 µM (inactive) | > 100 µM (inactive) | > 100 µM (inactive) | > 100 µM (inactive) | > 100 µM (inactive) | > 100 µM (inactive) | > 100 µM (inactive) | > 100 µM (inactive) | – | > 100 µM (inactive) | > 100 µM (inactive) | > 100 µM (inactive) | > 100 µM (inactive)
10 | O=C(O)CCCc1cc2c(s1)-c1cccc3cccc-2c13 | 20.4 µM (inactive) | 22.6 µM (inactive) | 20.2 | 50.1 µM (inactive) | 39.6 µM (inactive) | 23.7 µM (inactive) | 26 µM (inactive) | 19.1 µM (inactive) | 21.9 µM (inactive) | 84.9 µM (inactive) | 34.2 µM (inactive) | 47.3 µM (inactive) | 22.4 µM (inactive) | – | 36.6 µM (inactive) | 22.4 µM (inactive) | 19.4 µM (inactive) | > 100 µM (inactive) | 21.2 µM (inactive) | 50.4 µM (inactive)
11 | O=C1c2cccnc2S(=O)(=O)N1c1ccc(Oc2ccccc2)cc1 | > 100 µM (inactive) | 92.7 µM (inactive) | > 100 | > 100 µM (inactive) | > 100 µM (inactive) | 80 µM (inactive) | > 100 µM (inactive) | > 100 µM (inactive) | – | > 100 µM (inactive) | > 100 µM (inactive) | > 100 µM (inactive) | > 100 µM (inactive) | 69.7 µM (inactive) | 91.8 µM (inactive) | > 100 µM (inactive) | > 100 µM (inactive) | > 100 µM (inactive) | > 100 µM (inactive) | > 100 µM (inactive)
12 | S=C(N/N=C(/c1ccccc1)c1ccccn1)N1CCCCC1 | 0.741 µM (active) | < 0.0183 µM (active) | < 0.0234 | < 0.031 µM (active) | – | < 0.0166 µM (active) | – | 0.01 µM (active) | – | 0.134 µM (active) | 0.604 µM (active) | < 0.0164 µM (active) | < 0.0443 µM (active) | 1.28 µM (inactive) | < 0.0302 µM (active) | 0.01 µM (active) | < 0.0292 µM (active) | < 0.0211 µM (active) | 0.0459 µM (active) | 1.25 µM (inactive)
13 | O=C1/C(=C/c2ccccc2)N=C(c2ccccc2)N1C1Nc2cc3c(cc2S1)NC(N1C(=O)/C(=C/c2ccccc2)N=C1c1ccccc1)S3 (stereo unspecified) | 23.6 µM (inactive) | 3.78 µM (inactive) | 24.2 | > 100 µM (inactive) | 5.61 µM (inactive) | 5.28 µM (inactive) | – | 37.1 µM (inactive) | 3.74 µM (inactive) | 44.5 µM (inactive) | 6.64 µM (inactive) | 6.98 µM (inactive) | 29.5 µM (inactive) | 18.4 µM (inactive) | – | 3.63 µM (inactive) | 6.87 µM (inactive) | 17.9 µM (inactive) | 4.9 µM (inactive) | –
14 | COC12C=CC(CC1)c1c(O)ccc(O)c12 (stereo unspecified) | 42.9 µM (inactive) | > 84.9 µM (inactive) | 29.7 | > 90.8 µM (inactive) | > 31.6 µM (inactive) | 5.6 µM (inactive) | 59.3 µM (inactive) | 21.8 µM (inactive) | – | 39.1 µM (inactive) | 87.5 µM (inactive) | > 100 µM (inactive) | 39.3 µM (inactive) | > 79.6 µM (inactive) | > 92.5 µM (inactive) | 2.39 µM (inactive) | > 95.1 µM (inactive) | 52.8 µM (inactive) | > 86.1 µM (inactive) | 53.7 µM (inactive)
15 | CON(C)C(=O)C(C)NC(=O)OCc1ccccc1 (stereo unspecified) | – | > 100 µM (inactive) | > 100 | > 100 µM (inactive) | > 100 µM (inactive) | > 100 µM (inactive) | > 100 µM (inactive) | > 100 µM (inactive) | – | > 100 µM (inactive) | > 100 µM (inactive) | > 100 µM (inactive) | > 100 µM (inactive) | > 100 µM (inactive) | > 100 µM (inactive) | > 100 µM (inactive) | > 100 µM (inactive) | > 100 µM (inactive) | > 100 µM (inactive) | > 100 µM (inactive)
